According to patent US10441616B2, “Pharmaceutical composition for treating or preventing sensorineural hearing loss, containing cysteinyl leukotriene receptor antagonist and ginkgo leaf extract” (AJOU UNIVERSITY INDUSTRY-ACADEMIC COOPERATION FOUNDATION, priority 2014, dated 2019):

Legend:
Format in all cases: in vivo, mouse
hair cells = test: Surface preparation / Texas-Red phalloidin staining of hair cells of the Corti's organ after noise exposure; conditions: 1 week after noise exposure, 32 kHz site; montelukast post-treatment group compared with noise exposure group
Description: The cut cochlea was perfused with 4% PFA in 0.1 M PB and maintained overnight at 4° C. The cochlea was washed with PBS three times for 10 minutes and then decalcified with a 5% EDTA solution for 3 days. After decalcification, an otic capsule was removed and a lateral wall, a Reissner's membrane, and a tectorial membrane were removed under an optical microscope. The Corti's organ (OC) was dyed with Texas Red VR-X phalloidin (T7471; 200 U/mL methanol diluted 1:100 in PBS; Invitrogen, Eugene, Oreg.) for 1 hour. Thereafter, the entire samples were rinsed with PBS and cut and placed on a glass slide by performing a surface treatment method (microdissected into individual turns) and using a mounting solution containing 4′6-diamidino-2-phenilindol (H-1200; 1.5 μg/ml; DAPI; Vector Laboratories). The slide was incubated for at least 15 minutes. The hair cells of the OC were observed by a confocal microscope (LSM510, Carl Zeiss, Jena, Germany).

stereocilia of OHC = test: Scanning electron microscopy (SEM) of cochlear hair cells after noise exposure; conditions: basal turn areas corresponding to 32 kHz, montelukast post-treatment compared with only-noise exposed group
Excerpt: The SEM was used for evaluating the form of the hair cells of the cochlea. The mouse was euthanized after intraperitoneal injection of urethane, and temporal bones were dissected at both sides from the skull in order to obtain the cochlea to be carefully cut. The fenestra rotunda of the obtained cochlea was perforated by using a sharp needle. An outer lymph space was perfused with 2% glutaraldehyde in PBS by positioning a Pasteur pipette having a modified butterfly catheter for the fenestra rotunda. Each sample was left in a glutaraldehyde solution overnight. The samples were perfused with 1% osmium tetroxide and positioned at a tissue rotator for 15 minutes. The samples were rinsed with PBS three times. Under an optical microscope, the bone part of the cochlea was carefully removed and a lateral wall was cut and removed to expose the Corti's organ. The tissue was continuously dehydrated with 50, 70, 90, 95, and 100% acetones. Each specimen was treated with hexamethyldisilazane (HMDS) and dried in air, and positioned in a stove for coating of platinum. The tissue was photographed by JSM-6380 (Jeol, Tokyo, Japan). The damage to the hair cells was analyzed in basal turn areas corresponding to 32 kHz.

CysLT1 receptor gene = test: PCR of Cysltr1 gene expression in the cochlea after noise exposure; conditions: 3 day after noise exposure, montelukast post-treatment vs noise exposure group
Description: At 1 day, 3 day, and 7 day, the animal was euthanized with urethane intraperitoneal injection (1 g/kg) and the bilateral temporal bone was immediately removed. Two isolated cochleae were dissolved in a TRIzol solution, the lipid was removed by adding chloroform, and then RNA gene was extracted with isopropanol alcohol. The extracted RNA gene was quantified, mixed with two types of forward and reverse primers and polymerase, and amplified at an average of 35 cycles for each primer through a PCR machine, and then changes in expression level for each gene were compared and analyzed by measuring the fluorescent degree.

[1] = system: matrix metalloproteinase-3 (Mmp3); test: Gene and protein expression of Mmp3 in inner ear tissue after noise exposure (FIG. 10)

CysLT1 receptor gene (Cysltr1) expression (CysLT1 receptor gene): significantly decreased
Mmp3 gene expression level ([1]; montelukast post-treatment after noise exposure (FIG. 10A)): reduction
Mmp3 protein expression level ([1]; western blot, montelukast post-treatment after noise exposure (FIG. 10B)): reduction
SMILES: CC(C)(O)c1ccccc1CCC(SCC1(CC(=O)[O-])CC1)c1cccc(/C=C/c2ccc3ccc(Cl)cc3n2)c1.[Na+] (centres unmarked) [montelukast]
hair cell marker (phalloidin) (hair cells): significantly increased
damage to the stereocilia of OHC (stereocilia of OHC): significantly reduced
